Assay results: patent US6265450A, “Anti-stress composition” (Suntory Limited, priority 1995, dated 2001)
Like-named read-outs stand apart in the source and are kept apart here.

Assays:
thymus weight = test: Effect of restraint stress on decreased thymus weight; format: in vivo, male C57BL/6 mice; settings: Astaxanthin (Roche) in MCT; for minimal effective dose: Mus musculus, po
Description: Six week old, male C57BL/6 mice were purchased from Japan Clea Co., Ltd., and after preliminarily keeping for 1 week in an SPF (specific pathogen free) environment, were used in the experiment at age 7 weeks.
The mice were divided into a restrained group (16 mice) and a non-restrained group (5 mice). The unrestrained group was used as a control group. The restrained group was further divided into 4 groups of 4 mice each, and designated as the restrained control group, vitamin E group, β-carotene group and astaxanthin group. The restrained groups were restrained for 20 hours in metal restraint cages under conditions of minimal body movement and access to drinking water to induce restraint stress.
ASTAX 5000 manufactured by Itano Refrigated Food Co., Ltd. (containing 3.57% astaxanthin diester and 1.53% astaxanthin monoester), extracted and purified from krill, was used for astaxanthin. ASTAX 5000 was dissolved in medium chain fatty acid triglyceride (MCT) to a concentration of 100 mg/10 ml as astaxanthin content and used as the test substance solution. Vitamin E and β-carotene were dissolved in MCT, and MCT only was administered to the control group. The test substances were given orally three times on the day before restraint, immediately after restraint, and on the day after restraint at a dose of 100 mg/kg, for each test substance.
The mice were sacrificed by dislocation of the cervical vertebra 48 hours after the start of restraint. The thymus gland was excised and weighed.
Astaxanthin (Roche) was dissolved in MCT to astaxanthin concentrations of 0.04 mg/10 ml, 0.2 mg/10 ml, 1.0 mg/10 ml and 5.0 mg/10 ml to prepare the test substance solutions.
Thymus weight and spleen-origin NK cell activity were measured using the same procedures as described in Examples 1 and 2.

P815 mastocytoma = test: Effect of restraint stress on promotion of cancer metastasis (transplanted nodes on liver surface); format: in vivo, male DBA/2 mice; settings: Roche synthetic astaxanthin, 1 mg/kg by gavage three times in MCT; 16 days after transplantation; FIG. 7
Protocol: 7 week old, male DBA/2 mice were purchased from Japan Clea Co., Ltd., and after housing on a preliminary basis for 1 week in a specific pathogen free (SPF) atmosphere, the animals were used in the experiment at age 8 weeks.
The experimental mice were divided into three groups consisting of a restraint stress non-loaded control group (8 mice), a restraint stress loaded control group (8 mice) and a restraint stress loaded astaxanthin group (9 mice). Astaxanthin was administered orally by gavage three times on the day before restraint, immediately after the start of restraint and the day after the start of restraint at a dose of 1 mg/kg (MCT solution) each. Roche astaxanthin, a synthetic form of astaxanthin, was used for the test substance, while the control groups were orally administered MCT only three times by gavage. Restraint stress loading was performed under the same conditions as Example 1.
Mastocytoma subcultured in the abdominal cavities of DBA/2 mice in this laboratory was used for the P815 mastocytoma (DBA/2 mouse cutaneous mastocytoma). 1×10^4 cells/animal were transplanted into the caudal vein of each animal. […] The liver was excised 16 days after transplantation and after Vaughn's fixation, the number of transplanted nodes on the liver surface was measured.

cancer cell = settings: cited from earlier work
antibody production = settings: cited from earlier work
[1] = cited from earlier work

Question: For `CC1=C(/C=C/C(C)=C/C=C/C(C)=C/C=C/C=C(C)/C=C/C=C(C)/C=C/C2=C(C)C(=O)[C@@H](O)CC2(C)C)C(C)(C)C[C@H](O)C1=O` [astaxanthin], which “inhibitory effect on decreases in thymus weight caused by stress loading” value (thymus weight; 0.04-5.0 mg/10 ml, FIG. 5) is on record?
Answer: dose-dependent inhibitory effects

Question: What about the minimal effective dose (thymus weight; FIG. 5, read-out: doses at which the effect on decreased thymus weight was significant) of the same compound?
Answer: ≥ 1 mg/kg

Question: What about the minimal effective dose (thymus weight; suggested by thymus weight and NK cell activity, read-out: minimum effective dose of the anti-stress effect) of the same compound?
Answer: ~1 mg/kg

Question: What about the “inhibition of promotion of cancer metastasis caused by stress” value (P815 mastocytoma) of the same compound?
Answer: remarkable inhibition of promotion of cancer metastasis

Question: What about the “cancer cell growth inhibitory activity” value (cancer cell) of the same compound?
Answer: cancer cell growth inhibitory activity

Question: What about the antibody production activity (antibody production) of the same compound?
Answer: antibody production activity

Question: What about the “oxidation and decomposition in air” value [1] of the same compound?
Answer: easily oxidized and decompose relatively easily in air
